Source: patent publication US12559784B2 (priority 2023, dated 2026)
Values joined by “and” are separate entries in the source; they are usually repeats but may differ in a detail not shown here. Equal values may be shown once. Read-outs that look alike come from different tables or passages of the source.

Tests used:
[1] = system: alkaline phosphatase; assay type: biochemical
Procedure: New stocks were made the of the 1:100 alkaline phosphatase reaction reagents.
The conditions included: 1:100 dilution of alkaline phosphatase reaction reagent with two solvents (buffered saline and ethanol), dosing in 0.5 mL microcentrifuge tubes with 20 μL of chemical added to 180 μL of reaction reagent, and incubating with p-Nitrophenyl phosphate disodium salt (PNPP) substrate for 1-hour.

[2] = system: skin; conditions: cited from earlier work
[3] = system: phosphatase; assay type: biochemical, porcine; conditions: for percent of phosphatase measured (optical density compared to the naïve condition), average: average of two readings; for percent of phosphatase measured (optical density compared to the naïve condition): single readings
Procedure: Our next studies involved applying the test substance (500 μL) directly to the epidermis side of previously frozen porcine skin (Spear Products, Coopersburg, PA) that is placed in a holder that only exposes the epidermis side for 30 minutes, adding phosphate buffered saline (PBS) with added sodium azide (metabolic inhibitor that ensure no viable tissue), then aliquoting into cuvettes to read at an optical density of 300 nm. […] So, at the end of the initial studies described above, almost out of frustration, we tried to probe for released phosphatase activity using p-Nitrophenyl phosphate disodium salt (PNPP; Sigma Aldrich, St. Louis, MO) substrate solution to detect any presence of phosphatase.
Preparation • 1. Thaw 2 pieces of frozen porcine skin • a. Punch out as many skin discs and mount in holders • 2. Label cuvettes (3 for each chemical) Procedure • 1. Add 500 μL of test chemical to holder; incubate at room temperate for 30 minutes • 2. After 30 minutes, add 2 mL of PBS-Azide to both the holder containing the test chemical; forcefully pipette and re-pipette 10 times • 3. From the holder, aliquot 400 μL into 3 cuvettes; forcefully pipette and re-pipette 3 times before dispensing into cuvettes Reading Results • 1. Measure at OD300 for all cuvettes
Skin corrosion by GHS Category 1 dermal corrosive chemicals results in the disintegration of the epidermis into the dermis.

[4] = system: porcine skin; conditions: R 1 and 2
Procedure: Our initial studies involved using fresh and frozen porcine skin “buttons”. These buttons were punched out of porcine skin (Spear Products, Cooopersburg, PA) using a […] biopsy punch tool. Three different kinds of skin buttons were prepared from fresh porcine skin, frozen porcine skin, and frozen porcine skin with the fatty layer removed. […] The next day, the tubes were taken out and vortexed and 500 μL of the solution was aliquoted into cuvettes to read at three different optical density wavelengths (OD190, OD290, OD300) to evaluate the best response.
Skin Preparation • 1. Thaw 2 pieces of frozen porcine skin • 2. Punch out buttons: 24 buttons in each tube filled with 40 mL PB S-Azide 96-well plate Preparation • 1. Plate layout for dosing:
Procedure • 1. Dose each tissue with 140 μL of test chemical • 2. […] Take out of incubator and vortex pulse 3× • 2. Aliquot 500 μL to cuvette and read results at OD190, OD290, and OD300
There were three readings done at an optical density of 190, 290, and 300 nm to evaluate the best response. […] To address the variable exposure conditions, our next studies involved placing a larger porcine skin section into a holder that exposes only the epidermis side with no potential for test chemical exposure from the backside or through the sides.

[5] = system: alkaline phosphatase; assay: Alkaline phosphatase experiment, third week: with and without discs; assay type: biochemical
Text: Our next study focused on an in vitro method of detecting the potential of dermal corrosives to inhibit nonspecific phosphatases that may be released from the skin. We decided to test pure […] instead of relying on endogenous skin phosphatase. Alkaline phosphatase (Sigma Aldrich, St. Louis, MO) was purchased and suspended to make the reaction reagent (10,000 units). […] We note that the ratio used was 0.1 g/ml or 10% chemical—which is far in excess of any pharmaceutical applications. We further note that pharmaceutical enzyme inhibition tests, studies an use involve highly specific active site binding and these assays are conducted at ratios of micrograms-femtograms per ml. These studies are done at these ranges because these are the realistic concentrations for drug applications and therapeutics. […] So when a 50 Kg human consumes the tables, the tissues will be exposed at a 5 mg/50 kg=0.1 mg/kg=0.0000001 g/ml.
Next two quantitative methods were evaluated: 1) using the discs parts from our OptiSafe™ test method and 2) directly into the 24-well plate.
Preparation • 1. Alkaline phosphatase reaction reagent • a. Take 1 vial of AP, add 1 mL of PBS, mix by pipette/re-pipette 10 times • b. To a 50 mL conical tube, add 1 mL of the AP solution prepared above and 40 mL of PBS • 2. Prepare two 24-well plates (1 with discs, 1 without discs) • 3. […] Aliquot 200 μL PNPP and PBS Procedure • 1. Plate 1 (No Discs) • a. Add 1.25 mL from the prepared PBS-AP conical tube to each well (11 wells) • b. Add 100 μL of the test material to the well, mix with the same pipette tip, dispose and repeat for the rest of the test materials • c. Wrap the plate in saran wrap and place into the container • 2. Plate 2 (Discs) • a. Configure the 11 discs in the plate so the plate cover is stable • b. Add 1.25 mL from the prepared PBS-AP conical tube to each well (11 wells) • c. Add 100 μL of the test material to the center of the disc and repeat for the rest of the test materials • d. Put the plate cover on and place into the container • 3. […] Incubate for 1 hour Reading Results • 1. Measure at OD405

[6] = skin, chemical lists of the experiments
[7] = frozen porcine skin with fat layer removed
[8] = fresh porcine skin, 140 μL test chemical, >3A = outside readable range

Structure (SMILES)	A2 - Results AVG [1]	A2 - Results R1 [1]	A2 - Results R3 [1]	percent of phosphatase measured (optical density compared to the naïve condition), average [3]	percent of phosphatase measured (optical density compared to the naïve condition) [3]	also measured
CCCCCBr [1-Bromopentane]	2.686	2.590	2.598	–	–	in vivo GHS [2, 6]: Cat. 2
CC(C)(O)CCc1ccccc1 [2-Methyl-4-phenyl-2-butanol]	–	–	–	99.3%	98.6% and 100.0%	Corrosive ([2]; Yes/No): No; OD290 ([4]; fresh porcine skin): 0.339 and 0.426; OD300 ([4]; fresh porcine skin): 0.272 and 0.371; OD190 [4, 7]: 0.215 and 0.322; OD290 [4, 7]: 0.079 and 0.094; OD300 [4, 7]: 0.026 and 0.052; OD190 ([4]; frozen porcine skin): 0.338 and 0.362; OD290 ([4]; frozen porcine skin): 0.496 and 0.637; OD300 ([4]; frozen porcine skin): 0.342 and 0.497
CCCCCCCCCCCCCC(=O)OC(C)C [Isopropyl Myristate]	3.339	3.413	3.360	–	–	–
OCCc1ccccc1 [Phenylethyl alcohol]	3.303	3.342	3.287	–	–	–
CC(C)(C)c1ccccc1O [2-tert-Butylphenol]	2.615	2.829	2.448	–	–	–
NCCO [Ethanolamine]	–	–	–	19.9%	20.1% and 19.6%	Corrosive ([2]; rabbit, in vivo): Yes; raw optical density reading (PNPP), with discs (FIG. 3A) [5]: 0.170 and 0.166 and 0.172; raw optical density reading (PNPP), without discs (FIG. 3B) [5]: 0.174 and 0.185 and 0.175; OD190 [4, 8]: >3A; OD290 ([4]; fresh porcine skin): 0.848 and 1.169; OD300 ([4]; fresh porcine skin): 0.711 and 1.044; OD190 [4, 7]: 0.761 and 0.800; OD290 [4, 7]: 0.168 and 0.093; OD290 ([4]; frozen porcine skin): 0.708 and 0.767; OD300 ([4]; frozen porcine skin): 0.524 and 0.598
CCCCCCCCCCO [1-Decanol]	2.373	2.205	2.472	–	–	in vivo GHS ([2]; rabbit, in vivo): Cat. 2
OCCOCCOCCO [Triethylene glycol]	–	–	–	28.9%	29.5% and 28.2%	Corrosive ([2]; rabbit, in vivo): No
CC1=CCC(C(C)(C)O)CC1 (stereo not drawn) [alpha-Terpineol]	2.589	2.223	2.793	–	–	in vivo GHS ([2]; rabbit, in vivo): Cat. 2
CC(C)=CCC/C(C)=C/CO	1.894	1.876	1.956	–	–	in vivo GHS [2, 6]: Cat. 2
CC(C)O [Isopropanol]	2.528	2.294	2.389	–	–	–
CC(CC=O)CCCC(C)(C)O (centres unmarked) [Hydroxycitronellal]	2.585	2.513	3.089	–	–	–
BrCCc1ccccc1 [(2-Bromoethyl)benzene]	–	–	–	100.0%	100.0%	OD290 ([4]; fresh porcine skin): 0.125 and 0.133; OD300 ([4]; fresh porcine skin): 0.080 and 0.094; OD190 [4, 7]: 0.131 and 0.144; OD290 [4, 7]: 0.071; OD300 [4, 7]: 0.030 and 0.034; OD290 ([4]; frozen porcine skin): 0.279 and 0.254; OD300 ([4]; frozen porcine skin): 0.137 and 0.128
CCCSSCCC [di-n-Propyl disulfide]	2.472	2.649	2.368	69.9%	68.1% and 71.6%	Corrosive ([2]; Yes/No): No; in vivo GHS [2, 6]: Cat. 2; OD190 [4, 8]: 0.419 and 0.400; OD290 ([4]; fresh porcine skin): 0.139 and 0.137; OD300 ([4]; fresh porcine skin): 0.105 and 0.096; OD190 [4, 7]: 0.443 and 0.405; OD290 [4, 7]: 0.082 and 0.063; OD300 [4, 7]: 0.031 and 0.018; OD190 ([4]; frozen porcine skin): 0.314 and 0.396; OD290 ([4]; frozen porcine skin): 0.294 and 0.240; OD300 ([4]; frozen porcine skin): 0.161 and 0.119
CC(C=O)Cc1ccc(C(C)C)cc1 (centres unmarked) [Cyclamen aldehyde]	2.777	2.736	2.845	100.0%	100.0%	Corrosive ([2]; Yes/No): No; in vivo GHS [2, 6]: Cat. 2; OD290 ([4]; fresh porcine skin): 0.290
CC(=O)OCc1ccccc1 [Benzyl Acetate]	3.385	3.42	3.484	–	–	–
CC/C=C\CC1=C(C)CCC1=O	2.527	2.405	2.704	–	–	in vivo GHS ([2]; rabbit, in vivo): Cat. 2
C=C(C)[C@@H]1CC=C(CO)CC1 [p-Metha-1,8-dien-7-ol]	2.793	2.757	2.868	–	–	in vivo GHS [2, 6]: Cat. 2
O=C(OCc1ccccc1)c1ccccc1O [Benzyl Salicylate]	3.317	3.345	3.333	–	–	–
